Where no end group is shown, it is not given here.
What was measured:
HLA DRB1 *0101 = HLA DRB1 *0101 (Homo sapiens, UniProt P01903+P01911, A100R/D57E/F55L/F60I/F76Y/I96L/L162R/M171V/P40L/Q125E/R42F/V115G/Y59C); assay: IC50nM to purified HLA | DRB1 *0101
Method: (§1) Table printed on a drawing sheet, FIG. 1 (contd.)
Head of the field: IC50nM to purified HLA | DRB1 *0101
(§2) First copying reader's note: Continued from an earlier sheet of FIG. 1; decimal commas as printed, analog names encode substituted residues and positions, and some values are printed in italics or bold and some SEQ ID NOs underlined without a legend on this sheet.
Where the first naming reader finds the target: head: IC50nM to purified HLA | DRB1 *0101

HLA DRB1 *0401 = HLA DRB1 *0401 (Homo sapiens, UniProt P01903+P01911, A100K/A169T/F76Y/I96L/K127E/L162R/M171V/N62H/P40V/Q125Y/R42H/S133A/S149N/S66Y/V115G/V209L/W38E); assay: IC50nM to purified HLA | DRB1 *0401
Method: as §1
Head of the field: IC50nM to purified HLA | DRB1 *0401
as §2
Where the first naming reader finds the target: head: IC50nM to purified HLA | DRB1 *0401

HLA DRB1 *0701 = HLA DRB1 *0701 (Homo sapiens, UniProt P01903+P01911, A100R/A102G/A103Q/D57E/D86V/E43K/F76Y/K127E/L162R/M171V/P40G/Q125H/Q99D/R33Q/R42Y/R54Q/S133A/S66F/T210M/V115G/Y107V/Y59L/Y89S); assay: IC50nM to purified HLA | DRB1 *0701
Method: as §1
Head of the field: IC50nM to purified HLA | DRB1 *0701
as §2
Where the first naming reader finds the target: head: IC50nM to purified HLA | DRB1 *0701

HLA DRB4 *0101 = HLA DRB4 *0101 (Homo sapiens, UniProt P01903+P13762, G164S); assay: IC50nM to purified HLA | DRB4 *0101
Sequence of HLA DRB4 *0101 (P01903 26-254 limits assumed): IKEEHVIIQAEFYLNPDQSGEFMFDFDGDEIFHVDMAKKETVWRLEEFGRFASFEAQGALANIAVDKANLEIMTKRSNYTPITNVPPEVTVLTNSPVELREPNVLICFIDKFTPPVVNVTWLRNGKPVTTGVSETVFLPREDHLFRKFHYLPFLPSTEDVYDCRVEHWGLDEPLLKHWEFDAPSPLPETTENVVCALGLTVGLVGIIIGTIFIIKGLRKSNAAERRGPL
Sequence of HLA DRB4 *0101 (P13762 whole entry G164S): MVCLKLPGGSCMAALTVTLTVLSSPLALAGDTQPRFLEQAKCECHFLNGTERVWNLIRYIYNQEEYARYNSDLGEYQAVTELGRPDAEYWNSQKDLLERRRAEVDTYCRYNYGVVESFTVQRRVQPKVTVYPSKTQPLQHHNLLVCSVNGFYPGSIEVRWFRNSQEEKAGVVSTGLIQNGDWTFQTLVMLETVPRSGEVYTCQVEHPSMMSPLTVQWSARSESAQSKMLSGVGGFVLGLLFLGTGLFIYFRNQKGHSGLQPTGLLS
Method: as §1
Head of the field: IC50nM to purified HLA | DRB4 *0101
as §2
Where the first naming reader finds the target: head: IC50nM to purified HLA | DRB4 *0101

HLA DRB1 *1302 = HLA DRB1 *1302 (Homo sapiens, UniProt P01903+P01911, A100E/A169T/K41T/L162R/M171V/P40S/Q125H/Q178H/Q39Y/Q99D/R42S/S66N/T262R/V115G/W38E/Y61H); assay: IC50nM to purified HLA | DRB1 *1302
Sequence of HLA DRB1 *1302 (P01903 26-254 limits assumed, other chains not shown): as the sequence (P01903 26-254 limits assumed) above
Method: as §1
Head of the field: IC50nM to purified HLA | DRB1 *1302
as §2
Where the first naming reader finds the target: head: IC50nM to purified HLA | DRB1 *1302

HLA DRB1 *1501 = HLA DRB1 *1501 (Homo sapiens, UniProt P01903+P01911); assay: IC50nM to purified HLA | DRB1 *1501
Method: as §1
Head of the field: IC50nM to purified HLA | DRB1 *1501
as §2
Where the first naming reader finds the target: head: IC50nM to purified HLA | DRB1 *1501

HLA DRB5 *0101 = HLA DRB5 *0101 (Homo sapiens, UniProt P01903+Q30154); assay: IC50nM to purified HLA | DRB5 *0101
Method: as §1
Head of the field: IC50nM to purified HLA | DRB5 *0101
as §2
Where the first naming reader finds the target: head: IC50nM to purified HLA | DRB5 *0101

HLA DRB1 *0405 = HLA DRB1 *0405 (Homo sapiens, UniProt P01903+P01911, A100R/A169T/D86S/F76Y/I96L/K127E/L162R/M171V/N62H/P40V/Q125Y/R42H/S133A/S149N/S66Y/V115G/V209L/W38E); assay: IC50nM to purified HLA | DRB1 *0405
Method: as §1
Head of the field: IC50nM to purified HLA | DRB1 *0405
as §2
Where the first naming reader finds the target: head: IC50nM to purified HLA | DRB1 *0405

HLA DRB1 *0404 = HLA DRB1 *0404 (Homo sapiens, UniProt P01903+P01911, A100R/A169T/F76Y/I96L/K127E/L162R/M171V/N62H/P40V/Q125Y/R42H/S133A/S149N/S66Y/V209L/W38E); assay: IC50nM to purified HLA | DRB1 *0404
Method: as §1
Head of the field: IC50nM to purified HLA | DRB1 *0404
as §2
Where the first naming reader finds the target: head: IC50nM to purified HLA | DRB1 *0404

HLA DRB1 *1101 = HLA DRB1 *1101 (Homo sapiens, UniProt P01903+P01911, A100R/A169T/A87E/I96F/K41T/L162R/M171V/P40S/Q125H/Q178H/Q39Y/Q99D/R42S/S66Y/T262R/V115G/W38E); assay: IC50nM to purified HLA | DRB1 *1101
Sequence of HLA DRB1 *1101 (P01903 26-254 limits assumed, other chains not shown): as the sequence (P01903 26-254 limits assumed) above
Method: as §1
Head of the field: IC50nM to purified HLA | DRB1 *1101
as §2
Where the first naming reader finds the target: head: IC50nM to purified HLA | DRB1 *1101

HLA DRB1 *0301 = HLA DRB1 *0301 (Homo sapiens, UniProt P01903+P01911, A100K/A102G/A103R/A169T/F55Y/I96L/K41T/L162R/M171V/P40S/Q125H/Q178H/Q39Y/R42S/S66N/T106N/T262R/W38E/Y61H); assay: IC50nM to purified HLA | DRB1 *0301
Sequence of HLA DRB1 *0301 (P01903 26-254 limits assumed, other chains not shown): as the sequence (P01903 26-254 limits assumed) above
Method: as §1
Head of the field: IC50nM to purified HLA | DRB1 *0301
as §2
Where the first naming reader finds the target: head: IC50nM to purified HLA | DRB1 *0301

HLA DRB1 *0802 = HLA DRB1 *0802 (Homo sapiens, UniProt P01903+P01911, A100R/A103L/A169T/F76Y/H45Y/I96F/K41T/L162R/M171V/P40S/Q125H/Q178H/Q39Y/Q99D/R218S/R42G/S66Y/V115G/W38E); assay: IC50nM to purified HLA | DRB1 *0802
Method: as §1
Head of the field: IC50nM to purified HLA | DRB1 *0802
as §2
Where the first naming reader finds the target: head: IC50nM to purified HLA | DRB1 *0802

HLA DRB1 *0901 = HLA DRB1 *0901 (Homo sapiens, UniProt P01903+P01911, A100R/A103E/D57H/D86V/F55Y/F60I/F76Y/I96F/K127E/L162R/M171V/P40D/Q125H/Q99R/R33Q/R42F/S133A/S66N/T210M/V115G/W38K/Y107V/Y59G/Y89S); assay: IC50nM to purified HLA | DRB1 *0901
Method: as §1
Head of the field: IC50nM to purified HLA | DRB1 *0901
as §2
Where the first naming reader finds the target: head: IC50nM to purified HLA | DRB1 *0901

Row | Sequence | IC50 (HLA DRB1 *0101) | IC50 (HLA DRB1 *0401) | IC50 (HLA DRB1 *0701) | IC50 (HLA DRB4 *0101) | IC50 (HLA DRB1 *1302) | IC50 (HLA DRB1 *1501) | IC50 (HLA DRB5 *0101) | IC50 (HLA DRB1 *0405) | IC50 (HLA DRB1 *0404) | IC50 (HLA DRB1 *1101) | IC50 (HLA DRB1 *0301) | IC50 (HLA DRB1 *0802) | IC50 (HLA DRB1 *0901)
1 | AAANFVAANTLHAAA [SEQ ID NO: 54] | 6.1 nM | 3.4 nM | 84 nM | 1110 nM | 44 nM | 114 nM | 43 nM |  |  |  |  |  | 
2 | AAANFVAAFTLKADA [SEQ ID NO: 57] | 10 nM | 4.3 nM |  |  |  | 24 nM |  | 13 nM | 12 nM | 74 nM |  |  | 
3 | AAANFVAAWTLKAEA [SEQ ID NO: 59] | 1.8 nM |  |  | 221 nM | 1040 nM | 31 nM | 15 nM | 3.8 nM |  |  | 723 nM | 19 nM | 
4 | AAANFVAANTLKAEA [SEQ ID NO: 62] |  |  | 107 nM | 964 nM |  |  | 34 nM |  | 11 nM | 78 nM | 1740 nM |  | 
5 | AAANFVAAWTLKADA [SEQ ID NO: 55] | 7.6 nM | 5.5 nM | 52 nM |  |  |  | 24 nM |  | 9.7 nM | 41 nM |  | 35 nM | 
6 | AAANFVAAFTLKAEA [SEQ ID NO: 61] | 8 nM |  |  | 492 nM | 1570 nM |  |  | 12 nM |  |  | 1540 nM | 14 nM | 
7 | AAANFVAAFTLHAAA [SEQ ID NO: 53] | 4.7 nM | 1.6 nM | 52 nM | 111 nM |  |  |  | 12 nM |  |  | 254 nM | 12 nM | 41 nM
8 | AAANFVAANTLKADA [SEQ ID NO: 58] |  | 9.7 nM |  | 6320 nM | 269 nM | 296 nM |  |  |  |  |  |  | 109 nM
9 | AAANFVAAYTLKAEA [SEQ ID NO: 60] |  | 13 nM |  | 718 nM | 590 nM | 11 nM |  |  | 6.1 nM |  | 1070 nM | 21 nM | 43 nM
10 | AAANFVAAYTLKADA [SEQ ID NO: 56] |  | 6.3 nM |  |  | 819 nM | 12 nM |  |  | 15 nM | 100 nM | 1530 nM | 22 nM | 44 nM

The next lines start with the values.

Row | IC50 (HLA DRB1 *0101) | IC50 (HLA DRB1 *0401) | IC50 (HLA DRB1 *0701) | IC50 (HLA DRB4 *0101) | IC50 (HLA DRB1 *1302) | IC50 (HLA DRB1 *1501) | IC50 (HLA DRB5 *0101) | IC50 (HLA DRB1 *0405) | IC50 (HLA DRB1 *0404) | IC50 (HLA DRB1 *1101) | IC50 (HLA DRB1 *0301) | IC50 (HLA DRB1 *0802) | IC50 (HLA DRB1 *0901) | Sequence
11 | 4 nM |  | 75 nM | 124 nM |  | 7.3 nM |  |  | 1.6 nM |  | 393 nM | 14 nM |  | AAAIFVAAWTLKAAA [SEQ ID NO: 68]
12 |  |  |  |  | 1120 nM | 13 nM |  | 13 nM |  |  | 187 nM |  |  | AAAQFVAAWTLHAAA [SEQ ID NO: 64]
13 | 5.1 nM | 1.6 nM |  | 259 nM |  | 17 nM | 5.2 nM | 21 nM |  | 12 nM | 271 nM |  |  | AAAQFVAAWTLKAAA [SEQ ID NO: 63]
14 |  | 3.3 nM | 76 nM |  |  | 78 nM |  |  |  | 44 nM | 319 nM | 24 nM |  | AAAQFVAANTLHAAA [SEQ ID NO: 67]
15 | 7.3 nM | 2.7 nM | 109 nM | 109 nM | 65 nM | 17 nM |  |  | 4.5 nM |  |  |  | 75 nM | AAAIFVAANTLHAAA [SEQ ID NO: 72]
16 |  | 2.7 nM |  | 97 nM |  |  |  | 7.7 nM | 4.4 nM |  |  | 13 nM | 31 nM | AAAQFVAAFTLHAAA [SEQ ID NO: 66]
17 | 4.2 nM | 2.2 nM |  | 428 nM | 700 nM | 3.6 nM | 24 nM | 22 nM |  | 17 nM | 153 nM | 5.1 nM | 21 nM | AAAQFVAAYTLHAAA [SEQ ID NO: 65]
18 | 5.7 nM |  | 95 nM | 346 nM | 1950 nM | 3.2 nM |  |  |  | 19 nM | 301 nM | 9.4 nM |  | AAAIFVAAYTLHAAA [SEQ ID NO: 70]

From patent publication US9789181B2, “PAN-DR binding polypeptides and uses thereof” (Epimmune Inc., priority 2009, dated 2017)
